According to publication PMC6201930 (PLoS ONE, 2018):
Several values for one entry are separate records, joined by “and”; a condition that tells them apart may be missing. Equal values may be shown once. Read-outs that look alike come from different tables or passages of the source.

How the values were obtained:
[1] = system: p53 R213* UGA premature termination codon in HDQ-P1 mammary carcinoma cells; experiment: HDQ-p53UGA213 readthrough assay (full-length p53, MSD immunoassay); type: cell-based, human; settings: for HDQ-p53UGA213 (Maxfold): maximum readthrough activity above background
Protocol: We utilized HDQ-P1 mammary carcinoma cells, which are homozygous for R213*, a UGA premature termination codon in the gene for the tumor suppressor protein p53 [30]. […] Western blot hybridization and Meso Scale Discovery (MSD) immunoassay detection of p53 were done as previously described. […] Cells (45K per well) were grown in 96-well plates and treated with compounds for 24 hours. […] Cells were lysed with 60 μl per well of lysis buffer (20 mM Tris-HCL, pH 7.5, 1 mM EGTA, 1 mM EDTA,150 mM Nacl, 0.5% Triton X100) for one hour at room temperature and 30 μl of lysate per well were transferred to the coated plate and incubated overnight at 4 °C. […] Plates were then washed three times with PBS-T and 30 μl of 0.25 μ/ml goat anti-rabbit IgG-Sulfo-tag antibody (MSD) in TBS-C was added and incubated for 1 hour at room temperature. Plates were then washed three times with PBS-T and 150 μl read buffer (MSD) was added. Plates were read immediately in a SECTOR S 600 (MSD).

[2] = system: tGFP-CFTR542X-HA-HIS construct (codon 542 UGA) in 293H cells; experiment: tGFP-542X readthrough assay (HA-HIS MSD immunoassay); type: cell-based, human
[3] = system: fLuc mRNA harboring a UGA nonsense mutation at codon 190 (fLuc-190-NS); type: biochemical, rabbit
Excerpt: ThefLuc-190-NS assay is an in vitro rabbit reticulocyte lysate translation of an fLuc mRNA harboring a UGA nonsense mutation at codon 190 (fLuc-190-NS). It is believed that positively charged aminoglycosides are poorly taken up by cells, and we used this cell-free readthrough assay to eliminate the potential variable of cell uptake when measuring readthrough potency. […] Readthrough protein was detected using a HA-HIS MSD immunoassay described previously.
This cell-free translation assay used synthetic LUC mRNAs harboring an EMCV IRES and LUC codon 190-UGA premature stop codon prepared using the MegaScript in vitro transcription kit (Ambion). Translation reactions were done with the Rabbit Reticulocyte Lysate System (Promega) with 100 ng RNA and increasing concentrations of aminoglycosides. The amount of luminescence produced was determined after approximately 4 hours using a Viewlux CCD imager (Perkin-Elmer). Fold suppression over background was calculated as (aminoglycoside light units/PBS light units).

[4] = Cytotoxicity in stimulated PBMCs (CellTitre-Glo ATP); settings: human
Excerpt: (§1) When considering compounds for potential readthrough therapy it is important to monitor cellular and animal safety. In order to determine the most promising compounds to further evaluate in in vivo safety, we measured cytotoxicity in two different cell types. We used activated human peripheral blood mononuclear cells (PBMCs) (Table 2 and Fig 2D and 2E). PBMCs are a primary cell that when activated with phytohaemagglutinin (PHA) expand quickly and are commonly used as an in vitro surrogate for rapidly growing cells in the human body to evaluate cytotoxicity. Prior to advancing compounds into human studies, safety evaluation in rodents is performed. As an in vitro surrogate for rodent toxicity, we used primary mouse myoblasts.
(§2) Frozen human Peripheral Blood Mononuclear Cells (PBMCs) were obtained from […] (Alameda, CA, Cat# PB003F) from a single donor. […] Plates were incubated at 37°C with 5% CO2 for 4 hours prior to compound treatment. Compounds were serially diluted and added to the plates. Plates were incubated at 37°C, 5% CO2 incubator, for 72 hours prior to determinations of ATP levels. Cell viability was determined using a chemiluminescent assay to monitor adenosine triphosphate (ATP) levels in live cells (CellTitre-Glo; CTG; Promega, Cat#G7571). Methods were performed per the manufacturer’s instructions.

[5] = system: activated human peripheral blood mononuclear cells (PBMCs); experiment: as above; settings: for CC50: read-out: Stimulated PBMC CC50, individual determinations (S1 File)
Excerpt: as §1, §2

[6] = Cytotoxicity in myoblasts; settings: mouse
Excerpt: as §1

[7] = system: zebrafish neuromasts (hair cells); experiment: Neuromast toxicity assay (DASPEI staining); settings: read-out: Neuromast CC50; individual determinations (S1 File)
[8] = concentration required to double the level of full-length p53 protein, average ± SD, at least three experiments, highest concentration 300 μM
[9] = individual experiments (S1 File)
[10] = AVERAGE (S1 File), unit not given for EC5X
[11] = individual experiments (S1 File), unit not printed for EC5X (EC2X of the sheet in uM)
[12] = maximum readthrough above background, average ± SD
[13] = Stimulated PBMC (CC50), PHA/IL-2 stimulated, 72 hours, average ± SD
[14] = Stimulated PBMC CC50, AVERAGE (S1 File)

Structure (SMILES) | HDQ-p53UGA213 EC2X ([1]; AVERAGE (S1 File)) | HDQ-p53UGA213 max ([1]; AVERAGE (S1 File)) | HDQ-p53UGA213 EC2X [1, 8] | HDQ-p53UGA213 (Maxfold) ([1]; average ± SD) | tGFP-542X EC2X ([2]; AVERAGE (S1 File)) | tGFP-542X Maxfold ([2]; AVERAGE (S1 File)) | tGFP-542X EC5X [2, 10] | tGFP-542X EC2X [2, 9] | tGFP-542X Maxfold [2, 9] | tGFP-542X EC5X [2, 11] | tGFP-542X Maxfold [2, 12] | fLuc-190-NS EC2X ([3]; AVERAGE (S1 File)) | fLuc-190-NS MaxFold ([3]; AVERAGE (S1 File)) | fLuc-190-NS EC5X [3, 10] | fLuc-190-NS EC2X ([3]; cell-free, average ± SD) | fLuc-190-NS MaxFold ([3]; cell-free, average ± SD) | fLuc-190-NS EC2X [3, 9] | fLuc-190-NS MaxFold [3, 9] | fLuc-190-NS EC5X [3, 11] | CC50 [5] | other results
CN[C@@H]1[C@@H](O)[C@@H](O[C@@H]2[C@@H](O)[C@H](O[C@H]3O[C@H](CO)[C@@H](O)[C@H](O)[C@H]3N)[C@@H](N)C[C@H]2N)OC[C@]1(C)O (stereo in doubt) [Gentamicin X2, gentamicin X2] | 18.6 µM | 39.1 | 19 ± 6 µM | 39 ± 31 fold | 18.6 µM | 135.0 | 101.5 | 18.5 µM and 10.25 µM and 10.65 µM and 11.55 µM and 13.08 µM and 5.70 µM and 9.22 µM and 17.7 µM and 40.0 µM and 49.3 µM | 235 and 85 | 52 and 120 and 133 | 135 ± 87 fold | 0.0288 µM | 195.3 | 0.0696 | 0.029 ± 0.009 µM | 195 ± 18 fold | 0.0300 µM and 0.0373 µM and 0.0192 µM | 193.99 and 177.60 and 214.25 | 0.0904 and 0.0449 and 0.0734 | 2590 µM and 2630 µM and 2940 µM | HDQ-p53UGA213 EC2X [1, 9]: 19.47 µM and 16.13 µM and 19.14 µM and 12.27 µM and 19.04 µM and 21.26 µM and 22.25 µM and 17.98 µM and 6.97 µM and 32.75 µM and 17.45 µM and 17.38 µM and 19.08 µM; HDQ-p53UGA213 max ([1]; individual experiments (S1 File), max fold): 23.4 and 60.4 and 40.4 and 95 and 8.4 and 8 and 12.7 and 10.6 and 84.8 and 5.1 and 37.4 and 60.1 and 62.2; CC50 at 72 h [4, 13]: 2970 ± 533 µM; CC50 at 72 h [4, 14]: 2970 µM; CC50 at 72 h ([4]; Stimulated PBMC CC50, individual determinations (S1 File)): 3740 µM; safety window (average CC50 / average EC2X) ([5]; PBMCs, compared with NB84, NB124 or G418, 95% confidence limits): statistically better safety window; CC50 ([6]; primary mouse myoblasts, Myoblast (CC50), average ± SD): 834 ± 623 µM; CC50 ([6]; primary mouse myoblasts, Myoblast CC50, AVERAGE (S1 File)): 834 µM; CC50 [7]: 8.7 µM and 19 µM
CN[C@@H]1[C@@H](O)[C@@H](O[C@@H]2[C@@H](O)[C@H](O[C@H]3O[C@H]([C@@H](C)O)[C@@H](O)[C@H](O)[C@H]3N)[C@@H](N)C[C@H]2N)OC[C@]1(C)O [G418, reference compound] | 9.3 µM | 43.8 | 9 ± 5 µM | 44 ± 19 fold | 9.0 µM | 318.3 | 24.8 | 8 µM and 15 µM and 5 µM | 373 and 420 and 226 and 255 | 22 and 18 and 33 and 27 | 318 ± 93 fold | 0.0064 µM | 53.0 | 0.0260 | 0.0064 ± 0.0002 µM | 53 ± 2 fold | 0.0067 µM and 0.0063 µM | 51.05 and 54.30 and 53.65 | 0.0261 and 0.0252 and 0.0267 | 270 µM and 289 µM and 294 µM and 295 µM and 372 µM and 440 µM and 458 µM and 473 µM and 841 µM and 853 µM and 914 µM and 1060 µM | tGFP-542X EC2X ([2]; 293H cells, 24 hours, average ± SD): 9 ± 4 µM; CC50 [4, 13]: 546 ± 286 µM; CC50 [4, 14]: 546 µM; CC50 ([6]; Myoblast (CC50), average ± SD): 166 ± 100 µM; CC50 ([6]; Myoblast CC50, AVERAGE (S1 File)): 166 µM; CC50 [7]: 3.6 µM
